Laboratory results as given in patent US9221809B2 (MERCK SHARP & DOHME CORP., priority 2011, dated 2015).
Counter-ions that a name gives are not always drawn.

Target: IRAK4 (Homo sapiens (Human), UniProt Q9NWZ3)
Assay: IRAK4 kinase activity, IMAP fluorescence polarization assay
Type: biochemical
Conditions: 100 μM ATP, 0.5 nM GST tagged IRAK4; read-out: IRAK4 IC50
Procedure, shortened: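 GST-tagged IRAK4 at 0.5 nM phosphorylates 100 nM fluorescent peptide substrate with 100 μM ATP in pH 7.2 Tris buffer containing MgCl2, DTT and Tween 20, 30 min at 25 °C. Reaction stopped with IMAP binding reagent; phosphorylation read as increased fluorescence polarization.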

IRAK4, sequence (Q9NWZ3 whole entry): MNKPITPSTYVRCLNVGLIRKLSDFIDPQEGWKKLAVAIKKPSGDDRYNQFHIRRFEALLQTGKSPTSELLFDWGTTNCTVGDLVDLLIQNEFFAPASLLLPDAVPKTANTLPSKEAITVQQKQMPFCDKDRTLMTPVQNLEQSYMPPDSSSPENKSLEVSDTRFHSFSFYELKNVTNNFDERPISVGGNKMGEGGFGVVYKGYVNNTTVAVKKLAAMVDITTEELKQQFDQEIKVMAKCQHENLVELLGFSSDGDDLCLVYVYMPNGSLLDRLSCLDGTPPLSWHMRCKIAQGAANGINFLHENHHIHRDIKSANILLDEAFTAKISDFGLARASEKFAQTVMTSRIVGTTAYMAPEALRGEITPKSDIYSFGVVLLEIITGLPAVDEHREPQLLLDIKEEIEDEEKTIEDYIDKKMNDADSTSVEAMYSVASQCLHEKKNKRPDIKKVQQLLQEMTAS

Structure (SMILES) | IC50
O=c1[nH]c(NC2CCC2)nc(N[C@@H]2C[C@H](CO)[C@@H](O)[C@H]2O)c1-c1ccc2ccccc2n1 [Example 20, 2-(Cyclobutylamino)-6-((1R,2S,3R,4R)-2,3-dihydroxy-4-(hydroxymethyl)cyclopentylamino)-5-(quinolin-2-yl)pyrimidin-4(3H)-one.HCl] | 19 nM
O=c1[nH]c(N2CCOCC2)nc(N[C@@H]2CCCNC2)c1-c1nc2cccc(Cl)c2s1 [Example 339, (R)-5-(7-chlorobenzo[d]thiazol-2-yl)-2-morpholino-6-(piperidin-3-ylamino)pyrimidin-4(3H)-one] | 180 nM
O=c1[nH]c(NC2CCC2)nc(N[C@@H]2C[C@H](CO)[C@@H](O)[C@H]2O)c1-c1cscn1 [Example 23, 2-(Cyclobutylamino)-6-((1R,2S,3R,4R)-2,3-dihydroxy-4-(hydroxymethyl)cyclopentylamino)-5-(thiazol-4-yl)pyrimidin-4(3H)-one.HCl] | 1790 nM
CN1CCC[C@@H](Nc2nc(N3CCOCC3)[nH]c(=O)c2-c2nc3ccccc3s2)C1 [Example 95, (R)-5-(Benzo[d]thiazol-2-yl)-6-(1-methylpiperidin-3-ylamino)-2-morpholinopyrimidin-4(3H)-one.HCl] | 354 nM
O=c1[nH]c(N2CCOCC2)nc(N[C@@H]2CCCNC2)c1-c1ccc2ccccc2n1 [Example 93, (R)-2-Morpholino-6-(piperidin-3-ylamino)-5-(quinolin-2-yl)pyrimidin-4(3H)-one.HCl] | 26 nM
Cc1cccc(-c2c(N[C@@H]3C[C@H](CO)[C@@H](O)[C@H]3O)nc(N3CCCCC3)[nH]c2=O)n1 [Example 35, 6-(((1R,2S,3R,4R)-2,3-Dihydroxy-4-(hydroxymethyl)cyclopentyl)amino)-5-(6-methylpyridin-2-yl)-2-(piperidin-1-yl)pyrimidin-4(3H)-one.HCl] | 296 nM
O=c1[nH]c(N2CCOCC2)nc(N[C@@H]2CCCNC2)c1-c1nc(-c2ccc(F)cc2)cs1 [Example 98, (R)-5-(4-(4-Fluorophenyl)thiazol-2-yl)-2-morpholino-6-(piperidin-3-ylamino)pyrimidin-4(3H)-one.HCl] | 24 nM
Cc1csc(-c2c(N[C@@H]3C[C@H](CO)[C@@H](O)[C@H]3O)nc(N3CCC(C(F)(F)F)CC3)[nH]c2=O)n1 [Example 33, 6-(((1R,2S,3R,4R)-2,3-Dihydroxy-4-(hydroxymethyl)cyclopentyl)amino)-5-(4-methylthiazol-2-yl)-2-(4-(trifluoromethyl)piperidin-1-yl)pyrimidin-4(3H)-one.HCl] | 93.6 nM
O=c1[nH]c(N2CCC(F)(F)CC2)nc(N[C@@H]2C[C@H](CO)[C@@H](O)[C@H]2O)c1-c1nc2ccccc2s1 [Example 27, 5-(Benzo[d]thiazol-2-yl)-2-(4,4-difluoropiperidin-1-yl)-6-(((1R,2S,3R,4R)-2,3-dihydroxy-4-(hydroxymethyl)cyclopentyl)amino)pyrimidin-4(3H)-one.HCl] | 135 nM
O=c1[nH]c(OC2CCC2)nc(N[C@@H]2C[C@H](CO)[C@@H](O)[C@H]2O)c1-c1nc2ccccc2s1 [Example 15, 5-(Benzo[d]thiazol-2-yl)-2-cyclobutoxy-6-((1R,2S,3R,4R)-2,3-dihydroxy-4-(hydroxymethyl)cyclopentylamino)pyrimidin-4(3H)-one.HCl] | 1690 nM
O=c1[nH]c(NC2CCC2)nc(N[C@@H]2C[C@H](CO)[C@@H](O)[C@H]2O)c1-c1ccccn1 [Example 21, 2-(Cyclobutylamino)-6-((1R,2S,3R,4R)-2,3-dihydroxy-4-(hydroxymethyl)cyclopentylamino)-5-(pyridin-2-yl)pyrimidin-4(3H)-one.HCl] | 590 nM

Same assay, conditions: 100 μM ATP; read-out: IC50

Structure (SMILES) | IC50
O=c1[nH]c(N2CCC3CCCCC3C2)nc(N[C@@H]2CCCNC2)c1-c1nc2ccccc2s1 (stereo partly drawn) [Example 313, 5-(1,3-benzothiazol-2-yl)-(decahydroisoquinolin-2-yl)-6-[[(3R)piperidin-3-yl]amino]-3,4-dihydropyrimidin-4-one; trifluoroacetic acid] | 330 nM
O=c1[nH]c(N2CCOCC2)nc(NCCc2ncc[nH]2)c1-c1nc2ccccc2s1 [Example 264, 6-(2-(1H-imidazol-2-yl)ethylamino)-5-(benzo[d]thiazol-2-yl)-2-morpholino-pyrimidin-4(3H)-one] | 180 nM
O=C1C[C@H](Nc2nc(N[C@@H]3CCCNC3)c(-c3nc4ccccc4s3)c(=O)[nH]2)Cc2ccccc2N1 [Example 304] | 8900 nM
CC(C)C[C@H](CO)Nc1nc(N2CCOCC2)[nH]c(=O)c1-c1nc2ccccc2s1 [Example 266, (R)-5-(benzo[d]thiazol-2-yl)-6-(1-hydroxy-4-methylpentan-2-ylamino)-2-morpholinopyrimidin-4(3H)-one] | 2500 nM
O=c1[nH]c(N2CCC(NCc3ccccc3)CC2)nc(N[C@@H]2CCCNC2)c1-c1nc2ccccc2s1 [Example 332, 5-(1,3-benzothiazol-2-yl)-2-[4-(benzylamino)piperidin-1-yl]-6-[[(3R)-piperidin-3-yl]amino]-3,4-dihydropyrimidin-4-one trifluoroacetic acid] | 110 nM
O=c1[nH]c(N2CCOCC2)nc(N[C@@H]2CCCNC2)c1-c1csc(-n2cccn2)n1 [Example 217, (R)-5-(2-(1H-pyrazol-1-yl)thiazol-4-yl)-2-morpholino-6-(piperidin-3-ylamino)pyrimidin-4(3H)-one] | 82 nM
CC(C)S(=O)(=O)N1CCC(c2nc(N[C@@H]3CCCNC3)c(-c3nc4ccccc4s3)c(=O)[nH]2)CC1 [Example 237, 5-(1,3-benzothiazol-2-yl)-6-[[(3R)-piperidin-3-yl]amino]-2-[1-(propane-2-sulfonyl)piperidin-4-yl]-3,4-dihydropyrimidin-4-one] | 210 nM
O=c1[nH]c(N2CCOCC2)nc(NCCN2CCC(O)CC2)c1-c1nc2ccccc2s1 [Example 258, 5-(1,3-benzothiazol-2-yl)-6-[[2-(4-hydroxypiperidin-1-yl)ethyl]amino]-2-(morpholino-4-yl)-3,4-dihydropyrimidin-4-one] | 780 nM
O=c1[nH]c(C2CCN(C3CCOCC3)CC2)nc(N[C@@H]2CCCNC2)c1-c1nc2ccccc2s1 [Example 234, (R)-5-(benzo[d]thiazol-2-yl)-6-(piperidin-3-ylamino)-2-(1-(tetrahydro-2H-pyran-4-yl)piperidin-4-yl)pyrimidin-4(3H)-one] | 440 nM
O=c1[nH]c(N2CCOCC2)nc(NC2CCC(O)CC2)c1-c1nc2ccccc2s1 (stereo not shown) [Example 268, 5-(benzo[d]thiazol-2-yl)-6-(4-hydroxycyclo-hexylamino)-2-morpholinopyrimidin-4(3H)-one] | 620 nM
O=c1[nH]c(N2CC3CCC(C2)O3)nc(N[C@@H]2CCCNC2)c1-c1nc2ccccc2s1 [Example 300, 5-(1,3-benzothiazol-2-yl)-2-[8-oxa-3-azabicyclo[3.2.1]octan-3-yl]-6-[[(3R)-piperidin-3-yl]amino]-3,4-dihydropyrimidin-4-one; trifluoroacetic acid] | 43 nM

Same assay, conditions: 100 μM ATP; read-out: IRAK4 IC50

Structure (SMILES) | IC50
CS(=O)(=O)c1ccccc1N1CCN(c2nc(N[C@@H]3CCCNC3)c(-c3nc4ccccc4s3)c(=O)[nH]2)CC1 [Example 156, (R)-5-(benzo[d]thiazol-2-yl)-2-(4-(2-(methylsulfonyl)phenyl)piperazin-1-yl)-6-(piperidin-3-ylamino)pyrimidin-4(3H)-one] | 9 nM
O=c1[nH]c(N2CCOCC2CO)nc(N[C@@H]2CCCNC2)c1-c1nc2ccccc2s1 (stereo partly drawn) [Example 125, 5-(benzo[d]thiazol-2-yl)-2-(3-(hydroxymethyl)morpholino)-6-((R)-piperidin-3-ylamino)pyrimidin-4(3H)-one] | 864 nM
Cc1cnc(C)c(N2CCN(c3nc(N[C@@H]4CCCNC4)c(-c4nc5ccccc5s4)c(=O)[nH]3)CC2)n1 [Example 160, (R)-5-(benzo[d]thiazol-2-yl)-2-(4-(3,6-dimethylpyrazin-2-yl)piperazin-1-yl)-6-(piperidin-3-ylamino)pyrimidin-4(3H)-one] | 22 nM
CS(=O)(=O)c1cc(F)ccc1N1CCN(c2nc(N[C@@H]3CCCNC3)c(-c3nc4ccccc4s3)c(=O)[nH]2)CC1 [Example 150, (R)-5-(benzo[d]thiazol-2-yl)-2-(4-(4-fluoro-2-(methylsulfonyl)phenyl)piperazin-1-yl)-6-(piperidin-3-ylamino)pyrimidin-4(3H)-one] | 14 nM
CC(C)(O)C1CCN(c2nc(N[C@@H]3CCCNC3)c(-c3ccc4ccccc4n3)c(=O)[nH]2)C1 (stereo partly drawn) [Example 184, 2-(3-(2-hydroxypropan-2-yl)pyrrolidin-1-yl)-6-((R)-piperidin-3-ylamino)-5-(quinolin-2-yl)pyrimidin-4(3H)-one] | 42 nM
CO[C@H]1CN(c2nc(N[C@@H]3CCCNC3)c(-c3ccc4ccccc4n3)c(=O)[nH]2)C[C@@H]1O [Example 173, 2-((3S,4S)-3-hydroxy-4-methoxypyrrolidin-1-yl)-6-((R)-piperidin-3-ylamino)-5-(quinolin-2-yl)pyrimidin-4(3H)-one] | 40 nM
COc1ccc(N2CCN(c3nc(N[C@@H]4CCCNC4)c(-c4nc5ccccc5s4)c(=O)[nH]3)CC2)cc1 [Example 154, (R)-5-(benzo[d]thiazol-2-yl)-2-(4-(4-methoxyphenyl)piperazin-1-yl)-6-(piperidin-3-ylamino)pyrimidin-4(3H)-one] | 10 nM
O=c1[nH]c(N2CCN(c3cccnc3)CC2)nc(N[C@@H]2CCCNC2)c1-c1nc2ccccc2s1 [Example 138, (R)-5-(benzo[d]thiazol-2-yl)-6-(piperidin-3-ylamino)-2-(4-(pyridin-3-yl)piperazin-1-yl)pyrimidin-4(3H)-one] | 6 nM

Same assay, conditions: unit inferred; 100 μM ATP; read-out: IRAK4 IC50

Structure (SMILES) | IC50
O=c1[nH]c(N2CCN(c3cccnc3)CC2)nc(N[C@@H]2C[C@H](CO)[C@@H](O)[C@H]2O)c1-c1nc2ccccc2s1 [Example 63, 5-(benzo[d]thiazol-2-yl)-6-((1R,2S,3R,4R)-2,3-dihydroxy-4-(hydroxymethyl)cyclopentylamino)-2-(4-(pyridin-3-yl)piperazin-1-yl)pyrimidin-4(3H)-one] | 3.7 nM
